Starred links: 1 amine or outer side, 2 acyl side, 3 side chain; linkers in the order of their positions; H or OH if unused. Non-standard residues stand in square brackets, D forms with d. Residues, ends and D or L forms follow the SMILES beside them. Groups on a side chain read outwards from the residue. *: point of attachment. C20 diacid = O=C(O)CCCCCCCCCCCCCCCCCCC(=O)*; C18 diacid = O=C(O)CCCCCCCCCCCCCCCCC(=O)*; αMePhe(2-F) = C[C@](N)(Cc1ccccc1F)C(=O)O; γGlu = O=C(O)[C@H](CCC(=O)[*:2])N[*:1]; αMeY = C[C@](N)(Cc1ccc(O)cc1)C(=O)O; 4Pal = N[C@@H](Cc1ccncc1)C(=O)O; αMeL = CC(C)C[C@](C)(N)C(=O)O; Orn = NCCC[C@H](N)C(=O)O; AEEA = NCCOCCOCC(=O)O; Aib = CC(C)(N)C(=O)O
How the values were obtained:
Type in all cases: cell-based
hGIPR [1] = target: T1, hGIPR (Homo sapiens, UniProt P48546); experiment: Functional cAMP activity in the presence of 1% HSA; settings: read-out: cAMP Rel EC50, hGIPR
T1 sequence (P48546 22-466): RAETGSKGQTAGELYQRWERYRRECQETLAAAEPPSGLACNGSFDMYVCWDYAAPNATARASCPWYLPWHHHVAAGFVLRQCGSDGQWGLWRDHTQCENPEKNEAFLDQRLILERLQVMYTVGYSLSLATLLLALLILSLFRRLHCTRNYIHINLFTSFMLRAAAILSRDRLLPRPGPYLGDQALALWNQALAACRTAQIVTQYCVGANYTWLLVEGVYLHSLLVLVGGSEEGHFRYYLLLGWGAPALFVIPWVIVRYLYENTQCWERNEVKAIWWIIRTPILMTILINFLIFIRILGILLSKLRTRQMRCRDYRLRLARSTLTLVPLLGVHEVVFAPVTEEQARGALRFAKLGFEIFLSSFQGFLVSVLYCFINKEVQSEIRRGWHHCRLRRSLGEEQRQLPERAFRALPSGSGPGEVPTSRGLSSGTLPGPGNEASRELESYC

hGLP-1R [2] = target: T2, hGLP-1R (Homo sapiens, UniProt P43220); experiment: Functional cAMP activity in the presence of 1% HSA; settings: read-out: cAMP Rel EC50, hGLP-1R
human GcgR = human GcgR (Homo sapiens, UniProt P47871); experiment: Functional cAMP activity in the presence of 1% HSA; settings: read-out: cAMP Rel EC50, hGcgR
hGIPR [3] = target: T1, hGIPR; experiment: Functional cAMP activation in the presence of 0.1% casein (no HSA); settings: in the presence of 0.1% casein (no HSA); geometric mean; read-out: Relative cAMP EC50, hGIPR;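 on Relative cAMP EC50, hGIPR: intracellular cAMP rise after 30 min at 37 °C read by HTRF against a standard curve, scaled between buffer alone (0%) and top control ligand concentration (100%), four-parameter fit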;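 on Relative cAMP EC50, hGLP-1R: intracellular cAMP rise after 30 min at 37 °C read by HTRF, normalized between buffer only (0%) and maximal control ligand (100%), four-parameter variable-slope fit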;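 on Relative cAMP EC50, hGcgR: intracellular cAMP rise after 30 min at 37 °C, read by HTRF against a cAMP standard curve, scaled from buffer only (0%) to maximal control ligand response (100%)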
hGLP-1R [4] = target: T2, hGLP-1R; experiment: as above; settings: in the presence of 0.1% casein (no HSA); geometric mean; read-out: Relative cAMP EC50, hGLP-1R
hGcgR = hGcgR (Homo sapiens, UniProt P47871); experiment: as above; settings: in the presence of 0.1% casein (no HSA); geometric mean; read-out: Relative cAMP EC50, hGcgR;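 further: intracellular cAMP rise after 30 min at 37 °C, read by HTRF against a cAMP standard curve, scaled from buffer only (0%) to maximal control ligand response (100%)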
Sequence of hGcgR (P47871 26-477): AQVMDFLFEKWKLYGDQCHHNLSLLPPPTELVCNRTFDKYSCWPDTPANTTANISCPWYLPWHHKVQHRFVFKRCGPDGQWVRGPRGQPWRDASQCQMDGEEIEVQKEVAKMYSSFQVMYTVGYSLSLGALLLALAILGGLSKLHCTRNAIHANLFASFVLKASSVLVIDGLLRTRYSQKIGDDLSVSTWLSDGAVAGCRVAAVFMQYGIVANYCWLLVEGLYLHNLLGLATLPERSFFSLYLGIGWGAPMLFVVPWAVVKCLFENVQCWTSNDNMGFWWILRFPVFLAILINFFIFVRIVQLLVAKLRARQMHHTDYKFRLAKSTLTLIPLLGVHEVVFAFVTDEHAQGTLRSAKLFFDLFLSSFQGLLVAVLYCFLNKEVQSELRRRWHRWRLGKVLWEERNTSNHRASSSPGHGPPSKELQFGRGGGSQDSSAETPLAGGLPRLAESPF

T2 sequence (P43220 24-463): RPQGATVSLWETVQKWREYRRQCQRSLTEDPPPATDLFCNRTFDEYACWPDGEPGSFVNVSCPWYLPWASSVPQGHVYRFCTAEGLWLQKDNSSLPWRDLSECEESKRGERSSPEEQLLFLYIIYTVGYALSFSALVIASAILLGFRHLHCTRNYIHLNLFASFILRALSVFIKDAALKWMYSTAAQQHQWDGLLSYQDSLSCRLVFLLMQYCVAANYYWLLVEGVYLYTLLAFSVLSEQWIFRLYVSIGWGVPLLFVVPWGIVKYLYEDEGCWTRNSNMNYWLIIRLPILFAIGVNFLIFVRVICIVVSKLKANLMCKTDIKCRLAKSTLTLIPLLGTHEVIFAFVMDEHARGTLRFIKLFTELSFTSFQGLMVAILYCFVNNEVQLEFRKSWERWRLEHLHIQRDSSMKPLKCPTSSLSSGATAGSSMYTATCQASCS
Sequence of human GcgR (P47871 26-477): as the sequence (P47871 26-477) above

Row | SMILES | EC50 (hGIPR [1]) [nM] | EC50 (hGLP-1R [2]) [nM] | EC50 (human GcgR) [nM] | EC50 (hGIPR [3]) [nM] | EC50 (hGLP-1R [4]) [nM] | EC50 (hGcgR) [nM]
1 | CC[C@H](C)[C@H](NC(=O)[C@H](Cc1ccccc1)NC(=O)[C@H](C)NC(=O)[C@H](CCCNC(=N)N)NC(=O)[C@H](CCC(N)=O)NC(=O)[C@H](C)NC(=O)[C@H](CCCCNC(=O)COCCOCCNC(=O)CC[C@H](NC(=O)CCCCCCCCCCCCCCCCCCC(=O)O)C(=O)O)NC(=O)[C@H](CCCCN)NC(=O)[C@H](CC(=O)O)NC(=O)[C@H](CC(C)C)NC(=O)[C@](C)(CC(C)C)NC(=O)[C@@H](NC(=O)[C@H](CO)NC(=O)[C@H](Cc1ccc(O)cc1)NC(=O)[C@H](CC(=O)O)NC(=O)[C@H](CO)NC(=O)[C@@H](NC(=O)[C@H](Cc1ccccc1)NC(=O)[C@@H](NC(=O)CNC(=O)[C@H](CCC(N)=O)NC(=O)C(C)(C)NC(=O)[C@@H](N)Cc1ccc(O)cc1)[C@@H](C)O)[C@@H](C)O)[C@@H](C)CC)C(=O)N[C@@H](CCC(=O)O)C(=O)N[C@@H](Cc1ccc(O)cc1)C(=O)N[C@@H](CC(C)C)C(=O)N[C@@H](CC(C)C)C(=O)N[C@@H](CCC(=O)O)C(=O)NCC(=O)NCC(=O)N1CCC[C@H]1C(=O)N[C@@H](CO)C(=O)N[C@@H](CO)C(=O)NCC(=O)N[C@@H](CCC(=O)O)C(=O)N1CCC[C@H]1C(=O)N1CCC[C@H]1C(=O)N1CCC[C@H]1C(=O)N[C@@H](CO)C(=O)NCC(N)=O [Example 313] (H-Y[Aib]QGTFTSDYSI[αMeL]LDKK([AEEA-γGlu-C20 diacid])AQRAFIEYLLEGGPSSGEPPPSG-NH2) | 86.4 | 135 | 3290 | 0.49 | 0.304 | 4.11
2 | CC[C@H](C)[C@H](NC(=O)[C@H](Cc1ccccc1)NC(=O)C(C)(C)NC(=O)C(C)(C)NC(=O)[C@H](CCC(N)=O)NC(=O)[C@H](C)NC(=O)[C@H](CCCCNC(=O)COCCOCCNC(=O)CC[C@H](NC(=O)CCCCCCCCCCCCCCCCCCC(=O)O)C(=O)O)NC(=O)[C@H](CCCN)NC(=O)[C@H](CC(=O)O)NC(=O)[C@H](CC(C)C)NC(=O)[C@](C)(CC(C)C)NC(=O)[C@@H](NC(=O)[C@H](CO)NC(=O)[C@H](Cc1ccncc1)NC(=O)[C@H](CC(=O)O)NC(=O)[C@H](CO)NC(=O)[C@@H](NC(=O)[C@](C)(Cc1ccccc1F)NC(=O)[C@@H](NC(=O)CNC(=O)[C@H](CCC(N)=O)NC(=O)C(C)(C)NC(=O)[C@@H](N)Cc1ccc(O)cc1)[C@@H](C)O)[C@@H](C)O)[C@@H](C)CC)C(=O)N[C@H](CCC(=O)O)C(=O)N[C@@](C)(Cc1ccc(O)cc1)C(=O)N[C@@H](CC(C)C)C(=O)N[C@@H](CC(C)C)C(=O)N[C@@H](CCC(=O)O)C(=O)NCC(=O)NCC(=O)N1CCC[C@H]1C(=O)N[C@@H](CO)C(=O)N[C@@H](CO)C(=O)NCC(=O)N[C@@H](CCC(=O)O)C(=O)N1CCC[C@H]1C(=O)N1CCC[C@H]1C(=O)N1CCC[C@H]1C(=O)N[C@@H](CO)C(N)=O [Example 366] | 4.27 | 85.9 | 1830 | 0.024 | 0.744 | 4.51
3 | CC[C@H](C)[C@H](NC(=O)[C@H](Cc1ccccc1)NC(=O)[C@H](CCCN)NC(=O)C(C)(C)NC(=O)[C@H](CCC(N)=O)NC(=O)[C@H](C)NC(=O)[C@H](CCCCNC(=O)COCCOCCNC(=O)CC[C@H](NC(=O)CCCCCCCCCCCCCCCCC(=O)O)C(=O)O)NC(=O)[C@H](CCCN)NC(=O)[C@H](CC(=O)O)NC(=O)[C@H](CC(C)C)NC(=O)[C@](C)(CC(C)C)NC(=O)[C@@H](NC(=O)[C@H](CO)NC(=O)[C@H](Cc1ccncc1)NC(=O)[C@H](CC(=O)O)NC(=O)[C@H](CO)NC(=O)[C@@H](NC(=O)[C@](C)(Cc1ccccc1F)NC(=O)[C@@H](NC(=O)CNC(=O)[C@H](CCC(N)=O)NC(=O)C(C)(C)NC(=O)[C@@H](N)Cc1ccc(O)cc1)[C@@H](C)O)[C@@H](C)O)[C@@H](C)CC)C(=O)N[C@H](CCC(=O)O)C(=O)N[C@@](C)(Cc1ccc(O)cc1)C(=O)N[C@@H](CC(C)C)C(=O)N[C@@H](CC(C)C)C(=O)N[C@@H](CCC(=O)O)C(=O)NCC(=O)NCC(=O)N1CCC[C@H]1C(=O)N[C@@H](CO)C(=O)N[C@@H](CO)C(=O)NCC(=O)N[C@@H](CCC(=O)O)C(=O)N1CCC[C@H]1C(=O)N1CCC[C@H]1C(=O)N1CCC[C@H]1C(=O)N[C@@H](CO)C(N)=O [Example 367] | 4.89 | 30.1 | 668 | 0.0215 | 0.421 | 7.95
4 | CC[C@H](C)[C@H](NC(=O)[C@H](Cc1ccccc1)NC(=O)[C@H](CCCN)NC(=O)C(C)(C)NC(=O)[C@H](CCC(N)=O)NC(=O)[C@H](C)NC(=O)[C@H](CCCCNC(=O)COCCOCCNC(=O)CC[C@H](NC(=O)CCCCCCCCCCCCCCCCC(=O)O)C(=O)O)NC(=O)[C@H](CCCN)NC(=O)[C@H](CC(=O)O)NC(=O)[C@H](CC(C)C)NC(=O)[C@](C)(CC(C)C)NC(=O)[C@@H](NC(=O)[C@H](CO)NC(=O)[C@H](Cc1ccncc1)NC(=O)[C@H](CC(=O)O)NC(=O)[C@H](CO)NC(=O)[C@@H](NC(=O)[C@](C)(Cc1ccccc1F)NC(=O)[C@@H](NC(=O)CNC(=O)[C@H](CCC(N)=O)NC(=O)C(C)(C)NC(=O)[C@@H](N)Cc1ccc(O)cc1)[C@@H](C)O)[C@@H](C)O)[C@@H](C)CC)C(=O)N[C@H](CCC(=O)O)C(=O)N[C@@](C)(Cc1ccc(O)cc1)C(=O)N[C@@H](CC(C)C)C(=O)N[C@@H](CC(C)C)C(=O)N[C@@H](CCC(=O)O)C(=O)NCC(=O)NCC(=O)N1CCC[C@H]1C(=O)N[C@@H](CO)C(=O)N[C@@H](CO)C(=O)NCC(=O)N[C@@H](CCC(=O)O)C(=O)N1CCC[C@H]1C(=O)N1CCC[C@H]1C(=O)N1CCC[C@H]1C(=O)N[C@@H](CCC(=O)O)C(N)=O [Example 370] (H-Y[Aib]QGT[αMePhe(2-F)]TSD[4Pal]SI[αMeL]LD[Orn]K([AEEA-γGlu-C18 diacid])AQ[Aib][Orn]FI[dE][αMeY]LLEGGPSSGEPPPE-NH2) | 4.23 | 37.5 | 803 | 0.027 | 0.406 | 7.06
5 | CC[C@H](C)[C@H](NC(=O)[C@H](Cc1ccccc1)NC(=O)[C@H](CCCN)NC(=O)C(C)(C)NC(=O)[C@H](CCC(N)=O)NC(=O)[C@H](C)NC(=O)[C@H](CCCCNC(=O)CC[C@H](NC(=O)CC[C@H](NC(=O)CCCCCCCCCCCCCCCCC(=O)O)C(=O)O)C(=O)O)NC(=O)[C@H](CCCN)NC(=O)[C@H](CC(=O)O)NC(=O)[C@H](CC(C)C)NC(=O)[C@](C)(CC(C)C)NC(=O)[C@@H](NC(=O)[C@H](CO)NC(=O)[C@H](Cc1ccncc1)NC(=O)[C@H](CC(=O)O)NC(=O)[C@H](CO)NC(=O)[C@@H](NC(=O)[C@](C)(Cc1ccccc1F)NC(=O)[C@@H](NC(=O)CNC(=O)[C@H](CCC(N)=O)NC(=O)C(C)(C)NC(=O)[C@@H](N)Cc1ccc(O)cc1)[C@@H](C)O)[C@@H](C)O)[C@@H](C)CC)C(=O)N[C@H](CCC(=O)O)C(=O)N[C@@](C)(Cc1ccc(O)cc1)C(=O)N[C@@H](CC(C)C)C(=O)N[C@@H](CC(C)C)C(=O)N[C@@H](CCC(=O)O)C(=O)NCC(=O)NCC(=O)N1CCC[C@H]1C(=O)N[C@@H](CO)C(=O)N[C@@H](CO)C(=O)NCC(=O)N[C@@H](CCC(=O)O)C(=O)N1CCC[C@H]1C(=O)N1CCC[C@H]1C(=O)N1CCC[C@H]1C(=O)N[C@@H](CO)C(N)=O [Example 371] | 1.47 | 47.4 | 463 | 0.0128 | 0.327 | 4.46
6 | CC[C@H](C)[C@H](NC(=O)[C@H](Cc1ccccc1)NC(=O)[C@H](CCCN)NC(=O)C(C)(C)NC(=O)[C@H](CCC(N)=O)NC(=O)[C@H](C)NC(=O)[C@H](CCCCNC(=O)CC[C@H](NC(=O)CC[C@H](NC(=O)CCCCCCCCCCCCCCCCC(=O)O)C(=O)O)C(=O)O)NC(=O)[C@H](CCCN)NC(=O)[C@H](CC(=O)O)NC(=O)[C@H](CC(C)C)NC(=O)[C@](C)(CC(C)C)NC(=O)[C@@H](NC(=O)[C@H](CO)NC(=O)[C@H](Cc1ccncc1)NC(=O)[C@H](CC(=O)O)NC(=O)[C@H](CO)NC(=O)[C@@H](NC(=O)[C@](C)(Cc1ccccc1F)NC(=O)[C@@H](NC(=O)CNC(=O)[C@H](CCC(N)=O)NC(=O)C(C)(C)NC(=O)[C@@H](N)Cc1ccc(O)cc1)[C@@H](C)O)[C@@H](C)O)[C@@H](C)CC)C(=O)N[C@H](CCC(=O)O)C(=O)N[C@@](C)(Cc1ccc(O)cc1)C(=O)N[C@@H](CC(C)C)C(=O)N[C@@H](CC(C)C)C(=O)N[C@@H](CCC(=O)O)C(=O)NCC(=O)NCC(=O)N1CCC[C@H]1C(=O)N[C@@H](CO)C(=O)N[C@@H](CO)C(=O)NCC(=O)N[C@@H](CCC(=O)O)C(=O)N1CCC[C@H]1C(=O)N1CCC[C@H]1C(=O)N1CCC[C@H]1C(=O)N[C@@H](CCC(=O)O)C(N)=O [Example 372] (H-Y[Aib]QGT[αMePhe(2-F)]TSD[4Pal]SI[αMeL]LD[Orn]K([γGlu-γGlu-C18 diacid])AQ[Aib][Orn]FI[dE][αMeY]LLEGGPSSGEPPPE-NH2) | 2.63 | 53.1 | 468 | 0.0161 | 0.333 | 7.54

From patent US20240270821A1, “GIP/GLP1/GCG TRI-RECEPTOR AGONISTS AND USES THEREOF” (priority 2023, published 2024)
